Target: T1, USP28 (USP28-5(1-1077)-TEV-6*His; LifeSensors) (Homo sapiens, UniProt Q96RU2)
T1 construct: construct USP28 (USP28-5(1-1077)-TEV-6*His; LifeSensors); TEV cleavage site (C); 6xHis (C); purchased LifeSensors
T1 sequence (Q96RU2 1-1077): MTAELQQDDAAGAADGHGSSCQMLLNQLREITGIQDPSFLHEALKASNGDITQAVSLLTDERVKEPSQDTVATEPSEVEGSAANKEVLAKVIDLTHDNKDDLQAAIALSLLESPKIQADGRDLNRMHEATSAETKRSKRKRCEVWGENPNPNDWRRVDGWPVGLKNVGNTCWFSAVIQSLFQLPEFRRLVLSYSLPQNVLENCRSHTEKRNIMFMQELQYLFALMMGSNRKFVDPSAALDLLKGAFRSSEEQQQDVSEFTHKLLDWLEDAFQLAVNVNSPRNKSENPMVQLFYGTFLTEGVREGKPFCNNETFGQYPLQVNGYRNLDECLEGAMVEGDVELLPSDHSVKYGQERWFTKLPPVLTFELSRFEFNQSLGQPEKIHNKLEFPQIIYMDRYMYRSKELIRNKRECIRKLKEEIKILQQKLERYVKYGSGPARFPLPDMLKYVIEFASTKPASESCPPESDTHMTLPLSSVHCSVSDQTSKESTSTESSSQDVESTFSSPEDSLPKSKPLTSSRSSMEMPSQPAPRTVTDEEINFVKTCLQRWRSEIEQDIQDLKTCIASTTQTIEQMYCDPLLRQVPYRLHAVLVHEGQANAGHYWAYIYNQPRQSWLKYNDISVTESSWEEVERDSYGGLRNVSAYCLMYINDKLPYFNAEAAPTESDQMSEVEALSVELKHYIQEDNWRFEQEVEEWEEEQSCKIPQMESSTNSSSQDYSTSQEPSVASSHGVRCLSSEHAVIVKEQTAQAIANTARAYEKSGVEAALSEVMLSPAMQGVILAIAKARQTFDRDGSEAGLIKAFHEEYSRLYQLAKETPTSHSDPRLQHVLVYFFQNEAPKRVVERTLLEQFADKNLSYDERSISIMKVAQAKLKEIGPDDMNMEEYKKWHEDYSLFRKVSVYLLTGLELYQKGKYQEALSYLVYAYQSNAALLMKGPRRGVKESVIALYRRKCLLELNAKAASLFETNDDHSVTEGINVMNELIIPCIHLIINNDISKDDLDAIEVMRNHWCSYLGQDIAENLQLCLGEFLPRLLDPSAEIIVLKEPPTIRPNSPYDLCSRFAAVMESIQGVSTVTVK
Test: Ubiquitin-Rhodamine 110 Assay for USP28 Activity, Example A-1(b)
Format: biochemical
Conditions: Ubiquitin-Rhodamine 110 assay, Example A-1(b)
Outline: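 Single-point screening used 10 μM compound with 90 min room-temperature incubation; follow-up dose-responses (25 μM top, 3-fold) used 75 pM USP28 1-1077 construct, 30 min compound preincubation, 25 nM Ub-Rh110, 20 min reaction, citric acid quench. Rh110 fluorescence normalised to no-enzyme and DMSO controls; IC50 from 4-parameter logistic fit.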

SMILES	USP28 A-1(b) IC50 range
O=C(N[C@H]1COc2cc(N3CCNCC3)ccc2C1)c1cnn2ccccc12 [Example 460, (R)-N-(7-(piperazin-1-yl)chroman-3-yl)pyrazolo[1,5-a]pyridine-3-carboxamide]	+ (>2 μM)
O=C(N[C@H]1COc2cc(N3CCNCC3)ccc2C1)c1cnn2cc(Cl)ccc12 [Example 462, (R)-6-chloro-N-(7-(piperazin-1-yl)chroman-3-yl)pyrazolo[1,5-a]pyridine-3-carboxamide]	+ (>2 μM)
Cc1cc(C)n2ncc(C(=O)N[C@H]3COc4cc(N5CCNCC5)ccc4C3)c2n1 [Example 463, (R)-5,7-dimethyl-N-(7-(piperazin-1-yl)chroman-3-yl)pyrazolo[1,5-a]pyrimidine-3-carboxamide]	+ (>2 μM)
O=C(N[C@H]1COc2cc(N3CCNCC3)ccc2C1)c1ccc(NCc2cccc(Cl)c2)nc1 [Example 467, (R)-6-((3-chlorobenzyl)amino)-N-(7-(piperazin-1-yl)chroman-3-yl)nicotinamide]	++ (0.2-2 μM)
O=C(N[C@H]1COc2cc(N3CCNCC3)ccc2C1)c1ccc(NCc2cccnc2)nc1 [Example 468, (R)-N-(7-(piperazin-1-yl)chroman-3-yl)-6-((pyridin-3-ylmethyl)amino)nicotinamide]	+ (>2 μM)
O=C(N[C@H]1COc2cc(N3CCNCC3)ccc2C1)c1ccc(NCc2cccc(C(F)(F)F)c2)nc1 [Example 469, (R)-N-(7-(piperazin-1-yl)chroman-3-yl)-6-((3-(trifluoromethyl)benzyl)amino)nicotinamide]	++ (0.2-2 μM)
O=C(N[C@H]1COc2cc(N3CCNCC3)ccc2C1)c1ccc(NCc2ccccn2)nc1 [Example 470, (R)-N-(7-(piperazin-1-yl)chroman-3-yl)-6-((pyridin-2-ylmethyl)amino)nicotinamide]	+ (>2 μM)
O=C(N[C@H]1COc2cc(N3CCNCC3)ccc2C1)c1ccc(NCc2ccc3c(c2)OCCO3)nc1 [Example 471, (R)-6-(((2,3-dihydrobenzo[b][1,4]dioxin-6-yl)methyl)amino)-N-(7-(piperazin-1-yl)chroman-3-yl)nicotinamide]	+ (>2 μM)
O=C(N[C@H]1COc2cc(N3CCNCC3)ccc2C1)c1ccc(NCc2ccc3c(c2)CCO3)nc1 [Example 472, (R)-6-(((2,3-dihydrobenzofuran-5-yl)methyl)amino)-N-(7-(piperazin-1-yl)chroman-3-yl)nicotinamide]	++ (0.2-2 μM)
CC(=O)Nc1cccc(CNc2ccc(C(=O)N[C@H]3COc4cc(N5CCNCC5)ccc4C3)cn2)c1 [Example 473, (R)-6-((3-acetamidobenzyl)amino)-N-(7-(piperazin-1-yl)chroman-3-yl)nicotinamide]	+ (>2 μM)
